Measured values taken from US8653100B2 (AbbVie Inc., priority 2008, dated 2014).
pIC50, pKi: −log10 of the molar value. Structures can show the parent of a compound that is named as a salt. Where two headings read alike, the source gives them in different places.

Legend:
human GlyT1c transporter = human GlyT1c transporter (Homo sapiens (Human), UniProt P48067); assay: Radioligand binding assay using recombinant CHO cell membranes expressing human GlyT1; conditions: read-out: radioligand binding Kiapp
Method in brief: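 Apparent Ki values were derived by Cheng-Prusoff from one-site IC50 fits of displacement curves. Membranes from recombinant CHO cells (human GlyT1c, 50 μg/ml) were incubated 1 h at room temperature with 0.5 nM [^3H]-(R)-NPTS and test compound (1% DMSO, pH 7.5 buffer), with 10 μM Org24598 for non-specific binding, then filtered and counted.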

human GlyT1c = human GlyT1c (Homo sapiens (Human), UniProt P48067); assay: [3H]-Glycine uptake into recombinant CHO cells expressing human GlyT1; type: cell-based; conditions: hGlyT1c_5_CHO cells, 200 nM [3H]-glycine
Method in brief: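 hGlyT1c-expressing CHO cells plated at 20,000 cells/well and cultured 24 h; [3H]-glycine incorporation read continuously by solid-phase scintillation for up to 3 h. IC50 from four-parameter logistic fit using the linear uptake phase between 60 and 120 min.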

[1] = examples 88-204, radioligand not specified by footnote
[2] = radioligand [3H]-(R)-NPTS (examples 1-19, 22-52, 54-87)

Chain of human GlyT1c transporter (P48067 whole entry): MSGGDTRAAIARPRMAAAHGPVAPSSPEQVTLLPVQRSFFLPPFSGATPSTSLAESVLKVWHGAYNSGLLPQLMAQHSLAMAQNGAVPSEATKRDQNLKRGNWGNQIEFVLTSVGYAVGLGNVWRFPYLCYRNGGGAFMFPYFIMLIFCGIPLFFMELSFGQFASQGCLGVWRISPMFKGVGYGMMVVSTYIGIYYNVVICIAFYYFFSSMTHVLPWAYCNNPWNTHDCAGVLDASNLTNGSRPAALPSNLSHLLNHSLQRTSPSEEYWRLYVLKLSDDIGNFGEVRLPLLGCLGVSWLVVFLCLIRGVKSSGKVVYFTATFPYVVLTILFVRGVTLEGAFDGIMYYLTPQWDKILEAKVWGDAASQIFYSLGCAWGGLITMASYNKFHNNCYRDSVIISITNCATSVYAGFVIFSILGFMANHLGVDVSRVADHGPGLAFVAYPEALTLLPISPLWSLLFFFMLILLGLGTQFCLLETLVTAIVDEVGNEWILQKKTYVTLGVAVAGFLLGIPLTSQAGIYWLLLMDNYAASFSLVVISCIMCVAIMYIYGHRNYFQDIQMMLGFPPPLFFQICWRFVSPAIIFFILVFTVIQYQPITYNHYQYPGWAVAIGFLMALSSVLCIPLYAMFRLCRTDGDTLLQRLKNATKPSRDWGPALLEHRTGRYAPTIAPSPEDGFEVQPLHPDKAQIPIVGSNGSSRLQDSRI
Chain of human GlyT1c (P48067 whole entry): as above

Row | pKi (human GlyT1c transporter; [1]) | pIC50 (human GlyT1c) | pKi (human GlyT1c transporter; [2]) | Compound | pIC50 (human GlyT1c; hydrochloride)
1 | ≥ 6.00 | ≥ 5.00 | – | Nc1ccc(S(=O)(=O)NCCOc2ccc3c(c2)C(C2(c4ccc(Cl)cc4)CCC2)NCC3)cn1 (centres unmarked) [Example 165, 6-Amino-N-[2-({1-[1-(4-chlorophenyl)cyclobutyl]-1,2,3,4-tetrahydroisoquinolin-7-yl}oxy)ethyl]pyridine-3-sulfonamide] | –
2 | ≥ 5.00 | ≥ 5.00 | – | CN(C)CCCS(=O)(=O)NCCOc1ccc2c(c1)C(C1(c3ccc(Cl)cc3)CCC1)NCC2 (centres unmarked) [Example 181, N-[2-({1-[1-(4-Chlorophenyl)cyclobutyl]-1,2,3,4-tetrahydroisoquinolin-7-yl}oxy)ethyl]-3-(dimethylamino)propane-1-sulfonamide (2E)-but-2-enedioate] | –
3 | – | ≥ 7.00 | ≥ 6.00 | CS(=O)(=O)NCCOc1cc2c(cc1F)CCNC2C1(c2ccc(Cl)cc2)CCC1 (centres unmarked) [Example 12, N-(2-{1-[1-(4-Chloro-phenyl)-cyclobutyl]-6-fluoro-1,2,3,4-tetrahydro-isoquinolin-7-yloxy}-ethyl)-methanesulfonamide hydrochloride] | –
4 | ≥ 5.00 | ≥ 5.00 | – | CCCS(=O)(=O)NCCOc1ccc2c(c1)C(C(O)(c1ccc(Cl)cc1)c1ccc(Cl)cc1)NCC2 (centres unmarked) [Example 176, N-[2-({1-[Bis(4-chlorophenyl)(hydroxy)methyl]-1,2,3,4-tetrahydroisoquinolin-7-yl}oxy)ethyl]propane-1-sulfonamide hydrochloride] | –
5 | – | ≥ 7.00 | ≥ 7.00 | CC(C)CS(=O)(=O)NCCOc1ccc2c(c1)C(C1(c3ccc(Cl)cc3)CCC1)NCC2 (centres unmarked) [Example 8, 2-Methyl-propane-1-sulfonic acid (2-{1-[1-(4-chloro-phenyl)-cyclobutyl]-1,2,3,4-tetrahydro-isoquinolin-7-yloxy}-ethyl)-amide hydrochloride] | –
6 | – | ≥ 7.00 | ≥ 7.00 | CS(=O)(=O)NCCOc1ccc2c(c1)C(C1(c3ccc(Cl)cc3)CCC1)NCC2 (centres unmarked) [Example 2, N-(2-{1-[1-(4-Chloro-phenyl)-cyclobutyl]-1,2,3,4-tetrahydro-isoquinolin-7-yloxy}-ethyl)-methanesulfonamide] | –

More lines, now with the values behind:

Row | Compound | pKi (human GlyT1c transporter; [1]) | pIC50 (human GlyT1c) | pKi (human GlyT1c transporter; [2]) | pIC50 (human GlyT1c; hydrochloride)
7 | COc1ccccc1NS(=O)(=O)CCCOc1ccc2c(c1)C(C1(c3ccc(Cl)cc3)CCC1)NCC2 (centres unmarked) [Example 121, 3-({1-[1-(4-Chlorophenyl)cyclobutyl]-1,2,3,4-tetrahydroisoquinolin-7-yl}oxy)-N-(2-methoxyphenyl)propane-1-sulfonamide hydrochloride] | ≥ 5.00 | ≥ 5.00 | – | –
8 | O=S(=O)(CCCOc1ccc2c(c1)C(C1(c3ccc(Cl)cc3)CCC1)NCC2)N1CCNCC1 (centres unmarked) [Example 133, 1-[1-(4-Chlorophenyl)cyclobutyl]-7-[3-(piperazin-1-ylsulfonyl)propoxy]-1,2,3,4-tetrahydroisoquinoline dihydrochloride] | ≥ 5.00 | ≥ 5.00 | – | –
9 | O=S(=O)(NCCOc1ccc2c(c1)C(C1(c3ccc(Cl)cc3)CCC1)NCC2)c1ccc(Cl)cc1 (centres unmarked) [Example 27, 4-Chloro-N-(2-{1-[1-(4-chloro-phenyl)-cyclobutyl]-1,2,3,4-tetrahydro-isoquinolin-7-yloxy}-ethyl)-benzenesulfonamide hydrochloride] | – | ≥ 6.00 | ≥ 6.00 | –
10 | COc1cccc(S(=O)(=O)NCCOc2ccc3c(c2)C(C2(c4ccc(Cl)cc4)CCC2)NCC3)c1 (centres unmarked) [Example 19, N-(2-{1-[1-(4-Chloro-phenyl)-cyclobutyl]-1,2,3,4-tetrahydro-isoquinolin-7-yloxy}-ethyl)-3-methoxy-benzenesulfonamide hydrochloride] | – | ≥ 5.00 | ≥ 5.00 | –
11 | O=S(=O)(NCCOc1ccc2c(c1)[C@@H](C1(c3ccc(Cl)cc3)CCC1)NCC2)c1cccnc1 [Example 182, N-[2-({(1R)-1-[1-(4-Chlorophenyl)cyclobutyl]-1,2,3,4-tetrahydroisoquinolin-7-yl}oxy)ethyl]pyridine-3-sulfonamide hydrochloride] | ≥ 5.00 | – | – | ≥ 5.00
12 | NCCNS(=O)(=O)CCCOc1ccc2c(c1)C(C1(c3ccc(Cl)cc3)CCC1)NCC2 (centres unmarked) [Example 130, N-(2-Aminoethyl)-3-({1-[1-(4-chlorophenyl)cyclobutyl]-1,2,3,4-tetrahydroisoquinolin-7-yl}oxy)propane-1-sulfonamide dihydrochloride] | ≥ 5.00 | ≥ 4.00 | – | –
13 | CCCN1CCN(S(=O)(=O)NCCOc2ccc3c(c2)C(C2(c4ccc(Cl)cc4)CCC2)NCC3)CC1 (centres unmarked) [Example 183, N-[2-({1-[1-(4-Chlorophenyl)cyclobutyl]-1,2,3,4-tetrahydroisoquinolin-7-yl}oxy)ethyl]-4-propylpiperazine-1-sulfonamide dihydrochloride] | ≥ 5.00 | ≥ 5.00 | – | –
14 | CC(C)(C)NS(=O)(=O)CCCOc1ccc2c(c1)C(C1(c3ccc(Cl)cc3)CCC1)NCC2 (centres unmarked) [Example 118, N-tert-Butyl-3-({1-[1-(4-chlorophenyl)cyclobutyl]-1,2,3,4-tetrahydroisoquinolin-7-yl}oxy)propane-1-sulfonamide hydrochloride] | ≥ 6.00 | ≥ 5.00 | – | –
15 | N#Cc1ccc(S(=O)(=O)NCCOc2ccc3c(c2)C(C2(c4ccc(Cl)cc4)CCC2)NCC3)cc1 (centres unmarked) [Example 24, N-(2-{1-[1-(4-Chloro-phenyl)-cyclobutyl]-1,2,3,4-tetrahydro-isoquinolin-7-yloxy}-ethyl)-4-cyano-benzenesulfonamide hydrochloride] | – | ≥ 6.00 | ≥ 5.00 | –
16 | CC(C)(C)CS(=O)(=O)NCCOc1ccc2c(c1)C(C1(c3ccc(Cl)cc3)CCC1)NCC2 (centres unmarked) [Example 155, N-[2-({1-[1-(4-Chlorophenyl)cyclobutyl]-1,2,3,4-tetrahydroisoquinolin-7-yl}oxy)ethyl]-2,2-dimethylpropane-1-sulfonamide hydrochloride] | ≥ 7.00 | ≥ 5.00 | – | –
17 | O=S(=O)(CCCN1CCCCC1)NCCOc1ccc2c(c1)C(C1(c3ccc(Cl)cc3)CCC1)NCC2 (centres unmarked) [Example 200, N-[2-({1-[1-(4-Chlorophenyl)cyclobutyl]-1,2,3,4-tetrahydroisoquinolin-7-yl}oxy)ethyl]-3-(piperidin-1-yl)propane-1-sulfonamide (2E)-but-2-enedioate] | ≥ 4.00 | ≥ 5.00 | – | –
18 | O=S(=O)(NCCOc1ccc2c(c1)C(C1(c3ccc(Cl)cc3)CCC1)NCC2)c1ccccc1 (centres unmarked) [Example 62, N-(2-{1-[1-(4-Chloro-phenyl)-cyclobutyl]-1,2,3,4-tetrahydro-isoquinolin-7-yloxy}-ethyl)-benzenesulfonamide hydrochloride] | – | ≥ 6.00 | ≥ 6.00 | –
19 | CCS(=O)(=O)NCCOc1ccc2c(c1)C(C1(c3ccc(Cl)cc3)CCC1)NCC2 (centres unmarked) [Example 7, Ethanesulfonic acid (2-{1-[1-(4-chloro-phenyl)-cyclobutyl]-1,2,3,4-tetrahydro-isoquinolin-7-yloxy}-ethyl)-amide hydrochloride] | – | ≥ 7.00 | ≥ 7.00 | –
